These compounds were tested against T1, Apelin receptor (Homo sapiens, UniProt P35414) (assay: [35S]GTPgammaS Binding: The human APJ receptor was cloned by polymerase chain reaction and the gene encoding the receptor was subcloned in pFLAG-CMV-3 expression vector (Sigma, Saint Louis, Mo. USA) in-house at Amgen. A GTPγS binding assay was performed on membranes prepared from CHO cells stably expressing human APJ receptor. The optimum experimental conditions for the concentrations of GDP, MgCl2, and NaCl in the assay buffer were initially determined. The assay was performed in assay buffer [20 mM HEPES, pH 7.5, 5 mM MgCl2, and 0.1% (w/v) BSA with 200 mM NaCl, 3 μM GDP] and membranes expressing human APJ receptor/well along with WGA PS beads. The reaction was initiated by addition of 0.2 nM [35S]GTPγS (Perkin Elmer Life and Analytical Sciences, Waltham USA) in the absence or presence of various ligands and incubated at RT for 90 min. Nonspecific binding was determined in the presence of 100 μM GTPγS and was always less than 0.2% of total binding. All the results presented are means of several independent experiments and analyzed by non-linear regression methods using commercially available program Prism (GraphPad, San Diego, Calif.).).
T1 sequence (P35414 whole entry): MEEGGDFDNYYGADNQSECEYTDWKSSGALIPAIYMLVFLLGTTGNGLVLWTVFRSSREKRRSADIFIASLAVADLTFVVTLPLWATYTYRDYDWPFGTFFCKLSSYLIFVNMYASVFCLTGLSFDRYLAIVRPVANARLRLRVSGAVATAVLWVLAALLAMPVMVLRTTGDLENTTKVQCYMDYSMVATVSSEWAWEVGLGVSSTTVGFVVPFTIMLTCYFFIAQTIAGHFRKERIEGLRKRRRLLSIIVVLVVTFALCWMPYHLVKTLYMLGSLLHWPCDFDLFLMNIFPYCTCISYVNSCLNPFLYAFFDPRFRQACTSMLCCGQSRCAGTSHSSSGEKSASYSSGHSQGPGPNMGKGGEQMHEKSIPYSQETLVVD
COc1cccc(OC)c1-n1c(NS(=O)(=O)[C@@H](C)[C@@H](OC(C)C)c2ncc(C)cn2)nnc1[C@H]1COCCO1 showed an EC50 of 16 nM.
With COc1ncnc(OC)c1-n1c(NS(=O)(=O)[C@@H](C)[C@H](C)c2ncc(Cl)cn2)nnc1C1COC1 the EC50 was 730 nM.
For CO[C@H]1CCC[C@@H](OC)[C@@H]1n1c(NS(=O)(=O)[C@@H](C)[C@H](C)c2ncc(C)cn2)nnc1C1CCCO1 (single isomer, unassigned), the EC50 was 240 nM.

Source: ChEMBL document CHEMBL5726001, “Compounds for use in preparing heterocyclic triazole agonists of the APJ receptor” (2018)
